Experimental data as given in ChEMBL document CHEMBL1629424, “Does conjugation of antioxidants improve their antioxidative/anti-inflammatory potential?” (Bioorg Med Chem, 2010).
Calls of active or inactive are those of the source. The rule behind the calls is not given here.

Key:
Rattus norvegicus = test: Antiinflammatory activity in Fisher rat assessed as inhibition of carrageenan-induced paw oedema at 0.01 mmol/kg, po measured after 3.5 hrs; type: functional
[1] = Antioxidant activity of the compound assessed as reducing activity of DPPH at 0.1 mM after 60 mins; type: functional; parameters: scale not given: the % may be the effect or the level left
[2] = Antioxidant activity of the compound assessed as reducing activity of DPPH at 0.1 mM after 20 mins; type: functional; parameters: scale not given: the % may be the effect or the level left
[3] = Inhibition of soybean lipoxygenase; parameters: species or system Glycine max
[4] = Antioxidant activity against AAPH-induced lipid peroxidation assessed as inhibition of conjugated diene hydroperoxide production at 0.1 mM by UV spectrophotometry; type: functional
Glycine max [5] = test: Inhibition of soybean lipoxygenase at 0.1 mM
Glycine max [6] = test: Inhibition of soybean lipoxygenase at 0.05 mM
[7] = Cytotoxicity against RAMEC assessed as cell viability after 24 hrs by MTT assay; details: Rattus norvegicus

SMILES | IC50 [3] [µM] | inhibition (Glycine max [5]) | inhibition (Glycine max [6]) | inhibition in vivo at 10 µmol/kg (Rattus norvegicus) [%] | Activity [1] | Activity [2] | inhibition [4] | IC50 [7] [µM]
N[C@@H](Cc1ccc(O)c(O)c1)C(=O)NCCc1ccc(O)c(O)c1 | 81.5 | – | – | – | 92% | 92% | inactive | –
Cc1oc2c(C)c3oc(=O)cc(C)c3cc2c1/C=C/C(=O)O | – | 9% | inactive | – | 11% | 11% | 73% | –
O=C(O)/C=C/c1ccc(O)c(O)c1 [CAFFEIC ACID] | 600 | – | – | – | 6% | 5.5% | 17.5% | –
CC1=C(/C=C/C(C)=C/C=C/C(C)=C/C(=O)NCCCNCCCCNCCCNC(=O)/C=C(C)/C=C/C=C(C)/C=C/C2=C(C)CCCC2(C)C)C(C)(C)CCC1 | – | 76% | inactive | 40 | 5% | inactive | 58% | 2.6
COc1ccc2c(c1)c(CC(=O)O)c(C)n2C(=O)c1ccc(Cl)cc1 [INDOMETHACIN] | – | – | – | 47 | – | – | – | –
O=C(CCc1ccc(O)c(O)c1)NCCCNCCCCNCCCNC(=O)CCc1ccc(O)c(O)c1 [KUKOAMINE A] | 9.5 | – | – | 43 | 100% | 96% | 72% | 3.5
O=C(O)/C=C/C(=O)n1cc(C(=O)Nc2ccccc2)c2ccccc21 | 52.4 | – | – | 11 | inactive | 1% | 85% | –
N[C@@H](Cc1ccc(O)c(O)c1)C(=O)O | – | 23% | inactive | – | 76% | 76% | 65% | –
Cc1c(C)c2c(c(C)c1O)CCC(C)(C(=O)O)O2 (centres undefined) | – | – | – | – | – | – | 63% | –
CC1=C(/C=C/C(C)=C/C=C/C(C)=C/C(=O)NCCCCCCCCCCCCNC(=O)/C=C(C)/C=C/C=C(C)/C=C/C2=C(C)CCCC2(C)C)C(C)(C)CCC1 | – | 23% | inactive | – | 13.4% | inactive | 41% | 2.8
NCCCNCCCCNCCCN | – | inactive | inactive | – | 4% | 4% | inactive | –
Cc1oc2c(C)c3oc(=O)cc(C)c3cc2c1/C=C/C(=O)NCCCNCCCCNCCCNC(=O)/C=C/c1c(C)oc2c(C)c3oc(=O)cc(C)c3cc12 | – | 57% | inactive | – | 54% | 41% | 33% | –
NCCc1ccc(O)c(O)c1 [DOPAMINE] | 100 | – | – | 13 | 86% | 86% | 43% | –
O=C(O)CCc1ccc(O)c(O)c1 | – | 16% | inactive | – | 100% | 100% | 47% | –
CC(Cc1ccc(O)c(O)c1)C(C)Cc1ccc(O)c(O)c1 (centres undefined) | – | – | – | – | 83% | – | – | –
N[C@@H](Cc1ccc(O)c(O)c1)C(=O)NCCCNCCCCNCCCNC(=O)[C@@H](N)Cc1ccc(O)c(O)c1 | – | 32% | inactive | – | 96% | 89% | 71% | –
O=C1O[C@H]([C@@H](O)CO)C(O)=C1O | – | – | – | – | 100% | 99% | – | –

More lines, main results first:

IC50 [3] [µM] | inhibition (Glycine max [5]) | inhibition (Glycine max [6]) | SMILES | inhibition in vivo at 10 µmol/kg (Rattus norvegicus) [%] | Activity [1] | Activity [2] | inhibition [4] | IC50 [7] [µM]
87 | – | – | COc1cc(C)c(/C=C/C(C)=C/C=C/C(C)=C/C(=O)NCCc2ccc(O)c(O)c2)c(C)c1C | 13.7 | 79% | 79% | 10% | –
– | 23% | inactive | COc1ccc(/C=C/C(=O)O)cc1OC | – | 10% | 9% | 56% | –
– | 1% | inactive | COc1cc(C)c(/C=C/C(C)=C/C=C/C(C)=C/C(=O)O)c(C)c1C [ACITRETIN] | 63 | inactive | inactive | 85% | 14.6
– | 75% | inactive | COc1cc(C)c(/C=C/C(C)=C/C=C/C(C)=C/C(=O)NCCCNCCCCNCCCNC(=O)/C=C(C)/C=C/C=C(C)/C=C/c2c(C)cc(OC)c(C)c2C)c(C)c1C | 19 | 38% | 26% | 97% | 4.7
40.5 | – | – | COc1cc(C)c(/C=C/C(C)=C/C=C/C(C)=C/C(=O)NCc2ccccc2)c(C)c1C | 3.6 | 2% | inactive | 45% | –
65 | – | – | COc1ccc(/C=C/C(=O)NCCOCCOC(=O)/C=C/c2c(C)oc3c(C)c4oc(=O)cc(C)c4cc23)cc1OC | 9 | 15% | inactive | 98% | 12.9
33.5 | – | – | COc1ccc(/C=C/C(=O)NCCOCCOC(=O)/C=C/C(=O)n2cc(C(=O)Nc3ccccc3)c3ccccc32)cc1OC | – | 12% | inactive | inactive | –
9.4 | – | – | Cc1oc2c(C)c3oc(=O)cc(C)c3cc2c1/C=C/C(=O)OC(C)(C)C | 46 | 11% | 11% | 80% | 2.9
– | 43% | inactive | CC1=C(/C=C/C(C)=C/C=C/C(C)=C/C(=O)NCCCNCCCCNCCCNC(=O)/C=C/c2c(C)oc3c(C)c4oc(=O)cc(C)c4cc23)C(C)(C)CCC1 | – | 38% | 11% | 45% | –
62 | – | – | COc1ccc(/C=C/C(=O)NCCCNCCCCNCCCNC(=O)/C=C/c2ccc(OC)c(OC)c2)cc1OC | 42 | 58% | 52% | 100% | 11.3
41.5 | – | – | COc1cc(C)c(/C=C/C(C)=C/C=C/C(C)=C/C(=O)NCCCNCCCCNCCCNC(=O)/C=C/c2c(C)oc3c(C)c4oc(=O)cc(C)c4cc23)c(C)c1C | – | inactive | inactive | 31% | –
– | inactive | inactive | CC1=C(/C=C/C(C)=C/C=C/C(C)=C/C(=O)O)C(C)(C)CCC1 [TRETINOIN] | 11 | 23% | 11% | 75% | 18.3
– | 24% | inactive | CCCCNC(=O)/C=C/c1c(C)oc2c(C)c3oc(=O)cc(C)c3cc12 | – | 8.4% | inactive | 66% | –
